# Source: PubChem BioAssay (NCI)
#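 Test compounds were applied to cells in 96-well plates for 48 hours at 5 doses. TGI denotes the concentration required for complete inhibition of growth.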
# Key:
# Assay in all cases: DTP human tumour cell line panel, 48 h
# [1] = test system: 786-0 renal
# [2] = test system: A549 NSCLC
# [3] = test system: ACHN renal
# [4] = test system: BT-549 breast
# [5] = test system: CAKI-1 renal
# [6] = test system: CCRF-CEM leukemia
# [7] = test system: COLO 205 colon
# [8] = test system: DU-145 prostate
# [9] = test system: EKVX NSCLC
# [10] = test system: HCC-2998 colon
# [11] = test system: HCT-116 colon
# [12] = test system: HCT-15 colon
# [13] = test system: HL-60(TB) leukemia
# [14] = test system: HOP-62 NSCLC
# [15] = test system: HOP-92 NSCLC
# [16] = test system: HS 578T breast
# [17] = test system: HT29 colon
# [18] = test system: IGROV1 ovarian
# [19] = test system: K-562 leukemia
# [20] = test system: KM12 colon
# [21] = test system: LOX IMVI melanoma
# [22] = test system: M14 melanoma
# [23] = test system: MALME-3M melanoma
# [24] = test system: MCF7 breast
# [25] = test system: MDA-MB-231 breast
# [26] = test system: MDA-MB-435
# [27] = test system: MDA-N
# [28] = test system: MOLT-4 leukemia
# [29] = test system: NCI-H226 lung
# [30] = test system: NCI-H23 lung
# [31] = test system: NCI-H460 lung
# [32] = test system: NCI-H522 lung
# [33] = test system: NCI/ADR-RES ovarian
# [34] = test system: OVCAR-3 ovarian
# [35] = test system: OVCAR-4 ovarian
# [36] = test system: OVCAR-5 ovarian
# [37] = test system: OVCAR-8 ovarian
# [38] = test system: PC-3 prostate
# [39] = test system: RPMI-8226 leukemia
# [40] = test system: RXF 393 renal
# [41] = test system: SF-268 CNS
# [42] = test system: SF-295 CNS
# [43] = test system: SF-539 CNS
# [44] = test system: SK-MEL-2 melanoma
# [45] = test system: SK-MEL-28 melanoma
# [46] = test system: SK-MEL-5 melanoma
# [47] = test system: SK-OV-3 ovarian
# [48] = test system: SN12C renal
# [49] = test system: SNB-19 CNS
# [50] = test system: SNB-75 CNS
# [51] = test system: SR leukemia
# [52] = test system: SW-620 colon
# [53] = test system: T-47D breast
# [54] = test system: TK-10 renal
# [55] = test system: U251 CNS
# [56] = test system: UACC-257 melanoma
# [57] = test system: UACC-62 melanoma
# [58] = test system: UO-31 renal
smiles,measurement,setting,value
CC(C)OP(=O)(CCCCCCCCC/C=C/c1ccc2c(c1)OCCOCCOCCOCCO2)OC(C)C,TGI,[1],14.1 µM
same,TGI,[2],13.6 µM
same,TGI,[3],11.8 µM
same,TGI,[4],9.09 µM
same,TGI,[5],11.7 µM
same,TGI,[6],7.5 µM
same,TGI,[7],3.89 µM
same,TGI,[8],15.2 µM
same,TGI,[9],11.8 µM
same,TGI,[10],14.2 µM
same,TGI,[11],11.2 µM
same,TGI,[12],10.3 µM
same,TGI,[13],30.7 µM
same,TGI,[14],6.15 µM
same,TGI,[15],5.8 µM
same,TGI,[16],9.02 µM
same,TGI,[17],11 µM
same,TGI,[18],16.2 µM
same,TGI,[19],24.1 µM
same,TGI,[20],11 µM
same,TGI,[21],4.93 µM
same,TGI,[22],13.5 µM
same,TGI,[23],13.7 µM
same,TGI,[24],11.2 µM
same,TGI,[25],12.6 µM
same,TGI,[26],13.6 µM
same,TGI,[27],13.5 µM
same,TGI,[28],10.7 µM
same,TGI,[29],9.24 µM
same,TGI,[30],8.21 µM
same,TGI,[31],7.37 µM
same,TGI,[32],10.1 µM
same,TGI,[33],10.5 µM
same,TGI,[34],10 µM
same,TGI,[35],16.2 µM
same,TGI,[36],11.4 µM
same,TGI,[37],12.1 µM
same,TGI,[38],9.51 µM
same,TGI,[39],> 100 µM
same,TGI,[40],9.12 µM
same,TGI,[41],16.8 µM
same,TGI,[42],10.3 µM
same,TGI,[43],12.4 µM
same,TGI,[44],8.69 µM
same,TGI,[45],20.1 µM
same,TGI,[46],7.76 µM
same,TGI,[47],9.19 µM
same,TGI,[48],14.2 µM
same,TGI,[49],15.2 µM
same,TGI,[50],10.4 µM
same,TGI,[51],15.4 µM
same,TGI,[52],14.7 µM
same,TGI,[53],9.11 µM
same,TGI,[54],21.4 µM
same,TGI,[55],7.74 µM
same,TGI,[56],10.2 µM
same,TGI,[57],14.8 µM
same,TGI,[58],9.02 µM
Cn1c2ccccc2c(=NNc2ccc(S(N)(=O)=O)cc2)c2ccccc21,TGI,[1],> 50 µM
same,TGI,[2],> 50 µM
same,TGI,[3],29 µM
same,TGI,[4],> 50 µM
same,TGI,[5],> 50 µM
same,TGI,[6],> 50 µM
same,TGI,[7],> 50 µM
same,TGI,[8],> 50 µM
same,TGI,[9],> 50 µM
same,TGI,[10],38.7 µM
same,TGI,[11],> 50 µM
same,TGI,[12],> 50 µM
same,TGI,[13],32 µM
same,TGI,[14],> 50 µM
same,TGI,[15],35.8 µM
same,TGI,[16],> 50 µM
same,TGI,[17],> 50 µM
same,TGI,[18],> 50 µM
same,TGI,[19],40.4 µM
same,TGI,[20],> 50 µM
same,TGI,[21],38.1 µM
same,TGI,[22],> 50 µM
same,TGI,[23],43.2 µM
same,TGI,[24],43.1 µM
same,TGI,[25],> 50 µM
same,TGI,[26],> 50 µM
same,TGI,[27],> 50 µM
same,TGI,[28],26.9 µM
same,TGI,[29],48.4 µM
same,TGI,[30],> 50 µM
same,TGI,[31],34.3 µM
same,TGI,[32],> 50 µM
same,TGI,[33],> 50 µM
same,TGI,[34],> 50 µM
same,TGI,[35],> 50 µM
same,TGI,[36],> 50 µM
same,TGI,[37],> 50 µM
same,TGI,[38],> 50 µM
same,TGI,[39],> 50 µM
same,TGI,[40],43.7 µM
same,TGI,[41],> 50 µM
same,TGI,[42],> 50 µM
same,TGI,[43],> 50 µM
same,TGI,[44],34.3 µM
same,TGI,[45],> 50 µM
same,TGI,[46],22.5 µM
same,TGI,[47],> 50 µM
same,TGI,[48],> 50 µM
same,TGI,[49],> 50 µM
same,TGI,[50],46.6 µM
same,TGI,[51],25.6 µM
same,TGI,[52],> 50 µM
same,TGI,[53],34.8 µM
same,TGI,[54],> 50 µM
same,TGI,[55],> 50 µM
same,TGI,[56],49.8 µM
same,TGI,[57],> 50 µM
same,TGI,[58],41.1 µM
COC(=O)C(C)(Cc1ccc2c(c1)nnn2C(C)=O)NC(C)=O (stereo not given),TGI,[1],> 100 µM
same,TGI,[2],> 100 µM
same,TGI,[3],> 100 µM
same,TGI,[4],> 100 µM
same,TGI,[5],> 100 µM
same,TGI,[6],> 100 µM
same,TGI,[7],> 100 µM
same,TGI,[8],> 100 µM
same,TGI,[9],> 100 µM
same,TGI,[10],> 100 µM
same,TGI,[11],> 100 µM
same,TGI,[12],> 100 µM
same,TGI,[13],> 100 µM
same,TGI,[15],> 100 µM
same,TGI,[16],> 100 µM
same,TGI,[17],> 100 µM
same,TGI,[18],> 100 µM
same,TGI,[19],> 100 µM
same,TGI,[20],> 100 µM
same,TGI,[21],> 100 µM
same,TGI,[22],> 100 µM
same,TGI,[23],> 100 µM
same,TGI,[24],> 100 µM
same,TGI,[25],> 100 µM
same,TGI,[26],> 100 µM
same,TGI,[27],> 100 µM
same,TGI,[28],> 100 µM
same,TGI,[29],> 100 µM
same,TGI,[30],> 100 µM
same,TGI,[31],> 100 µM
same,TGI,[32],> 100 µM
same,TGI,[33],> 100 µM
same,TGI,[34],> 100 µM
same,TGI,[35],> 100 µM
same,TGI,[36],> 100 µM
same,TGI,[37],> 100 µM
same,TGI,[38],> 100 µM
same,TGI,[39],> 100 µM
same,TGI,[40],> 100 µM
same,TGI,[41],> 100 µM
same,TGI,[42],> 100 µM
same,TGI,[44],> 100 µM
same,TGI,[45],> 100 µM
same,TGI,[46],> 100 µM
same,TGI,[47],> 100 µM
same,TGI,[49],> 100 µM
same,TGI,[50],> 100 µM
same,TGI,[51],> 100 µM
same,TGI,[52],> 100 µM
same,TGI,[53],> 100 µM
same,TGI,[54],> 100 µM
same,TGI,[56],> 100 µM
same,TGI,[57],> 100 µM
same,TGI,[58],> 100 µM
